Data reported in article PMC6028453, “BrlR from Pseudomonas aeruginosa is a receptor for both cyclic di-GMP and pyocyanin” (Nature Communications, 2018).

Columns and labels:
BrlR D35A DNA binding = biological target: T1, BrlR D35A DNA binding (Pseudomonas aeruginosa, UniProt Q9HUT5, D35A); test: EMSA, BrlR D35A; format: biochemical
T1 construct: His6-SUMO (N, cleaved yes); made in house; host or cells: E. coli BL21 DE3
Experimental: (§1) A 6-carboxy-fluorescein (FAM)-labeled 36-bp brlR promoter DNA (PbrlR) or 80-bp mexA/mexE promoter DNA (PmexA/PmexE) probes (~0.375 pmol), BrlR protein and varying amounts of inducers were incubated in binding buffer (10 mM Tris HCl [pH 7.4], 50 mM KCl, 1 mM DTT, […] and 5 ng/mL poly [dI-dC]) for 60 min at 25 °C. Finally, glycerol was added to a concentration of 6.5%. The samples were subjected to a 5% polyacrylamide gel electrophoresis and run in 0.5 × Tris-borate-EDTA buffer at 80 V for 1 h at room temperature. Imaging and data analyses were performed using a Typhoon Scanner (GE Healthcare) and Imagequant software. The probes used are listed in Supplementary Table 1.

[1] = test system: brlR promoter activity (C2E mut2); test: β-galactosidase assay, C2E mut2; format: cell-based, Pseudomonas aeruginosa
Experimental: We also performed β-galactosidase activity assays using a PbrlR-brlR-lacZ reporter construct to investigate the transcriptional function of BrlR mutants in vivo. […] To confirm the effect of c-di-GMP in P. aeruginosa, we carried out real-time quantitative PCR analyses. Following a previous report, we introduced the diguanylate cyclase PA4843 into a WT P. aeruginosa strain carrying either pHERD20T-empty or pHERD20T-PA4843. The transcription level of brlR was analyzed using the brlR 5 F and brlR 3 R primers (Supplementary Table 1). The transcriptional level of brlR in pHERD20T-PA4843 strain is 4.5 ± 1.3-fold higher than that in the pHERD20T-empty strain (Fig. 4h).
β-galactosidase activity was assayed with P. aeruginosa PA01 ΔbrlR strain carrying plasmid pME6522-borne transcriptional lacZ fusions. P. aeruginosa carrying the empty vector was used as the […]. The reporter plasmids are derivatives of the pME6522 plasmid in which multiple cloning sites were inserted before the LacZ with the promoter and coding regions of brlR with diverse mutations. These reporter plasmids were transformed into the reporter strain. Overnight cultures were diluted 20-fold with LB medium supplemented with appropriate antibiotics. […]

BrlR mutant Y270A = biological target: T2, BrlR mutant Y270A (Pseudomonas aeruginosa, UniProt Q9HUT5, Y270A); test: FP binding assay, BrlR Y270A
T2 construct: His6-SUMO (N, cleaved yes); made in house; host or cells: E. coli BL21 DE3
Experimental: F-c-di-GMP and F-c-di-AMP both contain a fluorophore at one of the 2′-ribose hydroxyls of c-di-GMP and c-di-AMP, respectively (Fig. 2f). To measure the binding of c-di-GMP and c-di-AMP to BrlR variants, 1 nM F-c-di-GMP or F-c-di-AMP was incubated with increasing amounts of indicated BrlR WT, BrlR mutation, or BrlR-C in reaction buffer (25 mM HEPES, 100 mM NaCl, pH 7.5) at 25 °C for 20 min. 1 nM fluorescein was incubated with BrlR WT in the same reaction buffer at 25 °C. FP measurements were conducted on a Synergy 4 Microplate Reader (BioTek) at 25 °C. All experiments were performed in triplicate. The curves were fitted to deduce binding affinities by GraphPad Prism 5.
BrlR–c-di-GMPs interactions in two separate c-di-GMP binding sites
In the first binding site, c-di-GMP is half accommodated by the antiparallel β-sheet and two residues (M1 and D35). In detail, the backbone amide protons of the first M1 residue form a hydrogen bond (H-bond) with the phosphate oxygen atom of c-di-GMP, and the side chain of R31 forms two H-bonds with the Gua1 base. The residue D35 also forms an H-bond with the Gua1 base. The aromatic ring of Y40 interacts with the Gua1 base through a hydrophobic π-π interaction. In addition, the hydroxyl group of the Y270 side chain from another subunit interacts with the phosphate 2 of c-di-GMP via an H-bond (Fig. 2d). […]

BrlR-DNA binding (PbrlR) = biological target: T3, BrlR-DNA binding (PbrlR) (Pseudomonas aeruginosa, UniProt Q9HUT5); test: EMSA, wild-type BrlR with PbrlR DNA; format: biochemical
T3 construct: His6-SUMO (N, cleaved yes); made in house; host or cells: E. coli BL21 DE3
Experimental: as §1

T3 sequence (Q9HUT5 whole entry): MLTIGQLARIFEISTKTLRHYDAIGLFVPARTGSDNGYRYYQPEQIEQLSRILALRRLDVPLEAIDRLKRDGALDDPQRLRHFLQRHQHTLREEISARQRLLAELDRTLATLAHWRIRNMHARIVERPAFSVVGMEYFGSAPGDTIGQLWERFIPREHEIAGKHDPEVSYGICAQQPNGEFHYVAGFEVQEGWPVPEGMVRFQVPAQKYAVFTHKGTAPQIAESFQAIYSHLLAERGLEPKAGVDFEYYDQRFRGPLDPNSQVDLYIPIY
T1 sequence (Q9HUT5 whole entry D35A): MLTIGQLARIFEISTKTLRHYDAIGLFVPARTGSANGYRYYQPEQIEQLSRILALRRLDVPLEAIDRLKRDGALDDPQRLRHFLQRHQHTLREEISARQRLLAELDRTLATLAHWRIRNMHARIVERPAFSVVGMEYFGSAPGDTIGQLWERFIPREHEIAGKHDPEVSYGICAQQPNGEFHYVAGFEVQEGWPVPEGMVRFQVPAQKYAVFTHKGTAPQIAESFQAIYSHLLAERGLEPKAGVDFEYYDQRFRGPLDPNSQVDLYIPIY
T2 sequence (Q9HUT5 whole entry Y270A): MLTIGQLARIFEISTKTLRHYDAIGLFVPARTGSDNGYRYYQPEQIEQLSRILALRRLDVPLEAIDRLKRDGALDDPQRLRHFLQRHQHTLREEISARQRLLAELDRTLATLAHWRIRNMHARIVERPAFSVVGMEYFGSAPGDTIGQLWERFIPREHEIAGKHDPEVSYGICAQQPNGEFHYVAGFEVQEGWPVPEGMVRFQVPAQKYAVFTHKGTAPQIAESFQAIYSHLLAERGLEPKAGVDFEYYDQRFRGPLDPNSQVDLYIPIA

SMILES: Nc1nc2c(ncn2[C@@H]2O[C@@H]3COP(=O)(O)O[C@H]4[C@@H](O)[C@H](n5cnc6c(=O)[nH]c(N)nc65)O[C@@H]4COP(=O)(O)O[C@H]3[C@H]2O)c(=O)[nH]1 [c-di-GMP, cyclic diguanylate monophosphate]
- DNA bound in the presence vs absence of c-di-GMP (BrlR D35A DNA binding): ~ 4.8 fold
- increase at high vs low c-di-GMP concentration (β-galactosidase activity) [1]: 2.2 fold
- Kd (BrlR mutant Y270A): 40.8 ± 3.8 µM
- effect of c-di-GMP and pyocyanin together on BrlR-DNA binding (BrlR-DNA binding (PbrlR); PbrlR, c-di-GMP, pyocyanin, and both): cooperatively enhance
- BrlR-DNA complex in the presence vs absence of c-di-GMP (BrlR-DNA binding (PbrlR); wild-type BrlR, band densitometry): 5.5 fold
- effect on BrlR-PbrlR DNA binding (in words) (BrlR-DNA binding (PbrlR); wild-type BrlR, increasing concentrations of compound): significantly promoted
